Source: PMC2941879 (Bioorganic & medicinal chemistry, 2010)
Where a name gives a salt, the structure may show the parent alone.

Experiments:
[1] = biological target: cloned hD1 receptors (Homo sapiens, UniProt P21728); test: Cyclic AMP accumulation assay; type: cell-based
[2] = biological target: α2C receptors; conditions: read-out: Affinity at α2C receptors; cited from earlier work

Sequence of cloned hD1 receptors (P21728 whole entry): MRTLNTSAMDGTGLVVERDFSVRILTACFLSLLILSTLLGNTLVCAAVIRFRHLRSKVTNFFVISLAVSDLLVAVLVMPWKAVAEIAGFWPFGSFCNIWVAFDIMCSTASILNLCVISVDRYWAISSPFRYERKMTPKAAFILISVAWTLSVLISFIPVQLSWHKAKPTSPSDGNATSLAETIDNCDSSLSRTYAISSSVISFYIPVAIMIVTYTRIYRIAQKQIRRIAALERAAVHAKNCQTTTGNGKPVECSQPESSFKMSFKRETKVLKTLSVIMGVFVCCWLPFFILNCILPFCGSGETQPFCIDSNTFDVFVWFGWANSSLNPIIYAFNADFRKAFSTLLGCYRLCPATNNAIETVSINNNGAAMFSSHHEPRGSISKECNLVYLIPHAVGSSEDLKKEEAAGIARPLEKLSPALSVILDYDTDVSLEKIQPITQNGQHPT

Row | Compound | Agonist character at D1 receptors [1] | Ki [2] [nM]
1 | Oc1ccc2c(c1O)C[C@@H](c1ccccc1)[C@@H]1CCNC[C@@H]21 [compound 3, Trans-5-Phenyl-1,2,3,4,4a,5,6,10b-octahydrobenzo[h]isoquinoline-7,8-diol Hydrobromide] | full agonist | 
2 | Oc1cc2c(cc1O)C1c3ccccc3CNC1CO2 (centres unmarked) [DOX, doxanthrine] |  | 2
